For two compounds, SIC and MIC results are on record in patent publication US20200283384A1, “ANTIBACTERIAL COMPOUNDS AND METHODS OF USE THEREOF” (Wayne State University, priority 2016, published 2020).

In general, MIC refers to the lowest concentration that inhibits growth of the organism. High values mean a less susceptible organism, low ones a more susceptible organism.

This assay relates to Methicillin-resistant S. aureus strains; S. aureus (K1902). Description: MIC and SIC in 96 well microplates (plasmid curing study). The assay is classed as cell-based, Staphylococcus aureus. As to the method:
Plasmid curing activity of HN18 and HN34 was evaluated. Methicillin-resistant S. aureus strains were sub-cultured on blood agar plates to obtain isolated colonies, incubated at 35° C. in a CO2 incubator. The fresh overnight bacterial inoculum was prepared by re-suspending a few isolated colonies in a tube containing 5 ml of saline. […] The sub-inhibitory concentration (SIC) is defined as the concentration before MIC (in a serial dilution method where antibiotic concentration decreases by half from each tube to the next one).
Plasmid curing activity of HN18 and HN34 was also evaluated in S. aureus (K1902) which is known to harbor a 5 kb plasmid with a chloramphenicol resistance gene. Along with the KSA reference strain, the plasmid curing activity was repeated for SA1 and SA2 strains which are MRSA (Table 4).

The mark [1] stands for this setting: Table 4, KSA (S. aureus K1902), experiment I.
[2] abbreviates: Table 4, KSA (S. aureus K1902), experiment II.
The mark [3] stands for this setting: Table 4, isolate SA1, experiment I.
The mark [4] stands for this setting: Table 4, isolate SA1, experiment II.
Where [5] appears, read: Table 4, isolate SA2, experiment I.
Setting [6] is: Table 4, isolate SA2, experiment II.

Structures are written as SMILES. Values after ≈ are worked out from the molar mass of the structure shown.

`Fc1ccc(C(C2=CNC3C=CC=CC23)C2=C3C=CC=CC3NC2)cc1F` (centres unmarked) [HN18, 3-((3,4-difluorophenyl)(2,7a-dihydro-1H-indol-3-yl)methyl)-3a,7a-dihydro-1H-indole] yielded an SIC (Table 3, isolate SA1 (MRSA)) of 0.5 µg/mL; an SIC (Table 3, isolate SA2 (MRSA)) of 1.0 µg/mL; an SIC (Table 3, isolate SA3 (MRSA)) of 1.0 µg/mL; an SIC (Table 3, isolate SA4 (MRSA)) of 0.5 µg/mL; an SIC (Table 3, isolate SA5 (MRSA)) of 1.0 µg/mL; an SIC (Table 3, isolate SA6 (MRSA)) of 0.5 µg/mL. Besides, the SIC amounted to 0.5 µg/mL (Table 3, isolate SA7 (MRSA)); 1.0 µg/mL (Table 3, isolate SA8 (MRSA)); 1 µg/mL under setting [1]; 1 µg/mL under setting [2]; 1 µg/mL under setting [3]; 1 µg/mL under setting [4]. For the same compound, the SIC was found to be 1 µg/mL under setting [5] and 1 µg/mL under setting [6]. Further, the MIC under setting [1] came out at 2 µg/mL (≈ 5.52 µM); the minimal inhibitory concentration (MIC) under setting [2] is 2 µg/mL (≈ 5.52 µM); the MIC under setting [3] amounted to 2 µg/mL (≈ 5.52 µM); the MIC under setting [4] came to 2 µg/mL (≈ 5.52 µM); the MIC under setting [6] was determined as 2 µg/mL (≈ 5.52 µM).

For `Cc1[nH]c2ccccc2c1C(c1ccc(F)c(F)c1)c1c(C)[nH]c2ccccc12` [HN34], the SIC by setting is: (Table 3, isolate SA1 (MRSA)) 1 µg/mL; (Table 3, isolate SA2 (MRSA)) 1 µg/mL; (Table 3, isolate SA3 (MRSA)) 1 µg/mL; (Table 3, isolate SA4 (MRSA)) 1 µg/mL; (Table 3, isolate SA5 (MRSA)) 1 µg/mL; (Table 3, isolate SA6 (MRSA)) 0.5 µg/mL. Further, the SIC is, setting by setting: (Table 3, isolate SA7 (MRSA)) 0.5 µg/mL; (Table 3, isolate SA8 (MRSA)) 1 µg/mL; under setting [1], 1 µg/mL; under setting [2], 1 µg/mL; under setting [3], 1 µg/mL; under setting [4], 1 µg/mL. The SIC turned out to be 1 µg/mL under setting [5] and 1 µg/mL under setting [6]. Further, the MIC came out at 2 µg/mL (≈ 5.18 µM) under setting [1]; 2 µg/mL (≈ 5.18 µM) under setting [2]; 2 µg/mL (≈ 5.18 µM) under setting [4]; 2 µg/mL (≈ 5.18 µM) under setting [5]; 2 µg/mL (≈ 5.18 µM) under setting [6].
